Consider ten compounds from publication PMC6271638, “Synthesis of New 1,2,3-Triazol-4-yl-quinazoline Nucleoside and Acyclonucleoside Analogues” (Molecules, 2014).

pIC50: −log10 of the molar value. Like-named read-outs stand apart in the source and are kept apart here. Where only a bound is given, the exact number is not on record here.

Series [1] relates to HCV replicon (genotype 1b, CON1). Description: Anti-HCV activity, 3-day cell culture assay in HCV-replicon-containing cell line AVA5. In kind it is cell-based, hepatitis C virus. The conditions noted are these: AVA5 cells (genotype 1b, CON1), 3-day assay, read-out: IC50, concentration of compound achieving 50% inhibition of the replicon system. As to the method:
Antiviral activity was assessed in a 3-day cell culture assay using the HCV-replicon-containing cell line, AVA5 (genotype 1b, CON1) (provided to GUMC by Apath, Inc., Brooklyn, NY, USA) as previously described.
On the technique in general: Replicon systems follow genome replication, usually without infectious particles.

Series [2] has as its system Huh 5.2 cells. Description: Cytotoxicity (50% extinction of cells) in the anti-HCV replicon assay. In kind it is cell-based. The conditions noted are these: 3-day cell culture assay, read-out: CC50, concentration of compound required for 50% extinction of Huh 5.2 cells.
Experiment in series [3]: as above
It counts as cell-based. The conditions noted are these: human; Huh 5.2 cells; 3-day cell culture assay; read-out: CC50, concentration of compound required for 50% extinction of Huh 5.2 cells.

In the case of “3-((1-(β-D-Ribofuranos-1-yl)-1,2,3-triazol-4-yl)methyl)-2-methylquinazolin-4-one [Compound 7d]”, in series [1], the pIC50 was less than 5.00. In addition, the CC50 in series [2] is not below 100 µM.
Regarding “3-((1-(β-D-Ribofuranos-1-yl)-1,2,3-triazol-4-yl)methyl)quinazolin-4-one [Compound 7g]”, the pIC50 in series [1] was less than 5.00. The CC50 in series [2] is not below 100 µM.
Consider “4-((1-(β-D-Ribofuranos-1-yl)-1,2,3-triazol-4-yl)methoxy)-2-phenylquinazoline [Compound 7a]”, for which the pIC50 in series [1] was less than 5.00. Besides, the CC50 in series [2] is not below 50 µM.
With `C[C@@]1(O)[C@H](O)[C@@H](CO)O[C@H]1n1ccc(N)nc1=O` [Compound 2CmeCyt, reference compound], in series [1], the pIC50 was 5.82. Also, the CC50 in series [2] is more than 300 µM.
`OCCOCn1cc(COc2nc(-c3ccccc3)nc3ccccc23)nn1` [Compound 7b, 2-((4-((2-Phenylquinazolin-4-yloxy)methyl)-1,2,3-triazol-1-yl)methoxy)etanol]: in series [1] (Hepatitis C virus, 72 h), the pIC50 was less than 5.00. For the same compound, the CC50 at 3 day in series [3] was not below 100 µM.
`OCCCCn1cc(COc2nc(-c3ccccc3)nc3ccccc23)nn1` [Compound 7c, 4-(4-((2-Phenylquinazolin-4-yloxy)methyl)-1,2,3-triazol-1-yl)butan-1-ol]: the pIC50 in series [1] (Hepatitis C virus, 72 h) is less than 5.00. Moreover, in series [3], the CC50 at 3 day is not below 50 µM.
Take `Cc1nc2ccccc2c(=O)n1Cc1cn(COCCO)nn1` [Compound 7e, 2-((4-((2-Methyl-4-oxoquinazolin-3-yl)methyl)-1,2,3-triazol-1-yl)methoxy)ethanol]: the pIC50 in series [1] (Hepatitis C virus, 72 h) was less than 5.00. For the same compound, the CC50 at 3 day in series [3] was not below 50 µM.
With `Cc1nc2ccccc2c(=O)n1Cc1cn(CCCCO)nn1` [Compound 7f, 4-(4-((2-Methyl-4-oxoquinazolin-3-yl)methyl)-1,2,3-triazol-1-yl)butan-1-ol], in series [1] (Hepatitis C virus, 72 h), the pIC50 was less than 5.00. Further, the CC50 at 3 day in series [3] is not below 50 µM.
Regarding `O=c1c2ccccc2ncn1Cc1cn(COCCO)nn1` [Compound 7h, 2-((4-((4-Oxoquinazolin-3-yl)methyl)-1,2,3-triazol-1-yl)methoxy)ethanol], in series [1] (Hepatitis C virus, 72 h), the pIC50 is less than 5.00. Further, the CC50 at 3 day in series [3] is not below 50 µM.
Regarding `O=c1c2ccccc2ncn1Cc1cn(CCCCO)nn1` [Compound 7i, 4-(4-((4-Oxoquinazolin-3-yl)methyl)-1H-1,2,3-triazol-1-yl)butan-1-ol], the pIC50 in series [1] (Hepatitis C virus, 72 h) was less than 5.00. The CC50 at 3 day in series [3] is not below 50 µM.
